# In paper PMC12446476 (Nature Communications, 2025):
# Where “and” joins values, the source holds several entries; their conditions need not be identical. Identical values can stand only once. Like-named read-outs stand apart in the source and are kept apart here.
# Assays:
# [1] = test system: Salmonella typhimurium (TA1535, TA1537, TA98 and TA100); format: cell-based
# Procedure: (§1) Ames assays were performed using four strains of Salmonella typhimurium (TA1535, TA1537, TA98 and TA100) and a single strain of E. coli (WRP2 uvrA) in the presence and absence of S9 tissue homogenate. Dose levels (µg/plate) up to 4000 were assessed for WP2 uvrA and TA98, 500 for TA1535, 250 for TA1537 and 62.5 for TA100.
# E. coli WP2 uvrA = test: Ames assay, E. coli strain; format: cell-based; settings: with S9, positive control 1, 2 or 20 µg/plate
# Procedure: as §1
# N. gonorrhoeae [2] = test: In vitro selection of mutants with reduced susceptibility; format: cell-based, Neisseria gonorrhoeae
# Procedure: N. gonorrhoeae strains were grown overnight on chocolate agar plates, as described above. […] Plates were incubated at 35 ± 2 °C in a humid 5% CO2–enriched atmosphere for 48–72 h.
# human lymphocytes = test: In vitro micronucleus test; format: cell-based; settings: for Micronucleated cells: 1000 scored cells
# N. gonorrhoeae [3] = test: MIC determination, agar dilution (CLSI); format: cell-based, Neisseria gonorrhoeae; settings: for MIC: Neisseria gonorrhoeae, read-out: Minimum inhibitory concentration; for NgMIC50: screening panel of 14 N. gonorrhoeae isolates
# Source text: The 2024 WHO N. gonorrhoeae reference strains were used for quality control. Only whole MIC doubling dilutions are reported. Clinical breakpoints or the epidemiological cutoff (ECOFF, to indicate azithromycin resistance) from EUCAST (v14.0, https://www.eucast.org/clinical_breakpoints) were used to classify isolates as antimicrobial susceptible or resistant. […] Two times the standard inoculum defined by CLSI was used to establish consistent growth in untreated control samples for some strains. In vitro time-kill assays were performed according to CLSI guidelines[65] using Columbia Broth (BD Difco) supplemented with 1% IsoVitaleX Enrichment (BD). Viable bacterial counts were generated by plating 10-fold serially diluted samples on GC agar plates containing 1% IsoVitaleX Enrichment (BD).
# [4] = molecular target: recombinant NgFabI protein (Neisseria gonorrhoeae, UniProt A0ACH0F547); test: biochemical
# Procedure: FabI activity was monitored by measuring NADH consumption. […] To initiate reactions, 50 µM NADH was added, and absorbance was monitored at 340 nm every 12 s for a total of 40 min using a Spectramax Plus 384 plate reader (Molecular Devices) at a controlled temperature of 30 °C. Data were analysed using the XLfit Microsoft Excel plugin (version 5.5). IC50 values were determined using a logistic sigmoid curve-fitting of the inhibitor dose response curves.
# S. aureus ATCC 29213 = test: S. aureus neutropenic murine thigh infection model; format: in vivo, mouse; settings: ICR mice, 100 mg/kg PO, TID, 48h; 100 mg/kg
# Procedure: The S. aureus neutropenic murine thigh infection model was performed in accordance with the Guide for Care and Use of Laboratory Animals[75]. Animal rooms were maintained at a temperature range of 20–24 °C and humidity between 30% and 70%, with 12 h light/dark cycles. Female ICR mice (BioLASCO Taiwan Co., Ltd.) were rendered neutropenic via IP injection of cyclophosphamide four days before infection (150 mg/kg) and again one day before infection (100 mg/kg). Animals were anaesthetised with isoflurane (3–5%), then inoculated intramuscularly with S. aureus ATCC 29213 (~1 × 10^5 CFU/mouse). […] Animals were sacrificed via CO2 asphyxiation at either 2 h (baseline), 26 and/or 50 h post-infection. Thigh tissues were harvested and homogenised in 3 mL sterile PBS (pH 7.4). Bacterial burdens were determined by performing 10-fold serial dilutions and plating on nutrient agar plates.
# [5] = HepG2 cell viability (CellTiter-Glo); format: cell-based; settings: human, HepG2 cells, read-out: Cell viability, Mean (n=3)
# Procedure: (§2) HepG2 cells (HB-8065; ATCC) cultured in DMEM (Gibco) with 5% fetal bovine serum (heat-inactivated, Sigma-Aldrich) and 1% penicillin-streptomycin (ThermoFisher), were seeded in 96-well plates (3.0 × 10^4 per well) and incubated at 37 °C and 5% CO2. […] Each treatment was assessed in triplicate. Cytotoxicity was determined using CytoTox-ONE^TM Homogenous Membrane Integrity Assay kits (Promega), and cell viability was determined using CellTiter-Glo® Luminescent Cell Viability Assay kits (Promega), each according to the manufacturer’s specifications.
# HepG2 cells = test: HepG2 cytotoxicity (CytoTox-ONE membrane integrity); format: cell-based, human; settings: 24 h
# Procedure: as §2
# [6] = TA98, with S9, positive control 1, 2 or 20 µg/plate
# [7] = TA100, with S9, positive control 1, 2 or 20 µg/plate
# [8] = TA1535, with S9, positive control 1, 2 or 20 µg/plate
# [9] = TA1537, with S9, positive control 1, 2 or 20 µg/plate
# [10] = Suppl. Table 4, 31 h treatment, without S9, 31 h sampling, 0.08 µg/mL
# [11] = Suppl. Table 5, 31 h treatment, without S9, 31 h sampling, 0.04 µg/mL
# [12] = screening panel N. gonorrhoeae isolate A
# [13] = screening panel N. gonorrhoeae isolate B
# [14] = screening panel N. gonorrhoeae isolate C
# [15] = screening panel N. gonorrhoeae isolate D
# [16] = screening panel N. gonorrhoeae isolate E
# [17] = screening panel N. gonorrhoeae isolate F
# [18] = screening panel N. gonorrhoeae isolate G
# [19] = screening panel N. gonorrhoeae isolate H
# [20] = screening panel N. gonorrhoeae isolate I
# [21] = screening panel N. gonorrhoeae isolate J
# [22] = screening panel N. gonorrhoeae isolate K
# [23] = screening panel N. gonorrhoeae isolate L
# [24] = screening panel N. gonorrhoeae isolate M
# [25] = screening panel N. gonorrhoeae isolate N
# [26] = Suppl. Table 4, 3 h treatment, with S9, 32 h sampling, 15 µg/mL
# [27] = Suppl. Table 5, 3 h treatment, with S9, 32.5 h sampling, 20 µg/mL
# recombinant NgFabI protein, sequence (A0ACH0F547 entry or part of it): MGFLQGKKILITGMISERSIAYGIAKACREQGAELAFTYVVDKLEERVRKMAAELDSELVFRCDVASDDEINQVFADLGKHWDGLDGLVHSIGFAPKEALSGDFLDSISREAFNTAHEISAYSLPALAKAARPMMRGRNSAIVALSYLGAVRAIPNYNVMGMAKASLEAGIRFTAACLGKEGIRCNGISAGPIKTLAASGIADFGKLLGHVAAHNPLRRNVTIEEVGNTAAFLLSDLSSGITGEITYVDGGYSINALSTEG
smiles,measurement,setting,value
"Nc1ccc2cc3ccccc3cc2c1 [2-Aminoanthracene, reference compound]","Ames bacterial mutation assessment, Mean",[1]; [6],515
same,Colony count,[1]; [6],486 and 532 and 526
same,"Ames bacterial mutation assessment, Mean",[1]; [7],1256
same,Colony count,[1]; [7],1316 and 1188 and 1256
same,"Ames bacterial mutation assessment, Mean",[1]; [8],104
same,Colony count,[1]; [8],93 and 104 and 116
same,"Ames bacterial mutation assessment, Mean",[1]; [9],95
same,Colony count,[1]; [9],90 and 94 and 102
same,"Ames bacterial mutation assessment, Mean",E. coli WP2 uvrA,187
same,Colony count,E. coli WP2 uvrA,181 and 184 and 195
"O=C(O)c1cn(C2CC2)c2cc(N3CCNCC3)c(F)cc2c1=O [Ciprofloxacin, reference compound]",Mutants (colonies),"N. gonorrhoeae [2]; 6926, 4x MIC",4
same,Mutants (colonies),"N. gonorrhoeae [2]; 6926, 8x MIC",5
same,Mutants (colonies),"N. gonorrhoeae [2]; 6926, 16x MIC",1
same,Mutants (colonies),"N. gonorrhoeae [2]; ATCC 700825, 4x MIC",1
same,Mutants (colonies),"N. gonorrhoeae [2]; ATCC 700825, 8x MIC",0
same,Mutants (colonies),"N. gonorrhoeae [2]; ATCC 700825, 16x MIC",0
COc1cc2c(c(OC)c1OC)-c1ccc(OC)c(=O)cc1[C@@H](NC(C)=O)CC2 [Colchicine],Incidence of micronucleated cells,"human lymphocytes; -S9, treatment 31 h, harvest 31 h, positive control 0.04 µg/mL (Debio 1453 study)",1.85%
same,Incidence of micronucleated cells,"human lymphocytes; -S9, treatment 31 h, harvest 31 h, positive control 0.08 µg/mL (Debio 1453P study)",3.35%
same,Micronucleated cell percentage,human lymphocytes; [10],3.35%
same,Micronucleated cells,human lymphocytes; [10],33 and 34
same,Micronucleated cell percentage,human lymphocytes; [11],1.85%
same,Micronucleated cells,human lymphocytes; [11],19 and 18
Cc1c(CN(C)C(=O)/C=C/c2cnc3c(c2)NCCC(=O)N3)oc2ccccc12 [Compound 1],MIC,N. gonorrhoeae [3]; [12],0.25 µg/mL
same,MIC,N. gonorrhoeae [3]; [13],0.125 µg/mL
same,MIC,N. gonorrhoeae [3]; [14],0.125 µg/mL
same,MIC,N. gonorrhoeae [3]; [15],0.25 µg/mL
same,MIC,N. gonorrhoeae [3]; [16],0.125 µg/mL
same,MIC,N. gonorrhoeae [3]; [17],0.25 µg/mL
same,MIC,N. gonorrhoeae [3]; [18],0.5 µg/mL
same,MIC,N. gonorrhoeae [3]; [19],0.25 µg/mL
same,MIC,N. gonorrhoeae [3]; [20],0.125 µg/mL
same,MIC,N. gonorrhoeae [3]; [21],0.25 µg/mL
same,MIC,N. gonorrhoeae [3]; [22],0.5 µg/mL
same,MIC,N. gonorrhoeae [3]; [23],0.25 µg/mL
same,MIC,N. gonorrhoeae [3]; [24],0.125 µg/mL
same,MIC,N. gonorrhoeae [3]; [25],0.125 µg/mL
same,NgMIC50,N. gonorrhoeae [3],0.25 µg/mL
same,IC50,[4],6 nM
Cc1c(CN(C)C(=O)/C=C/c2cnc3c(c2)N[C@H](C)CC(=O)N3)oc2ccccc12 [Compound 2],MIC,N. gonorrhoeae [3]; [12],0.25 µg/mL
same,MIC,N. gonorrhoeae [3]; [13],0.125 µg/mL
same,MIC,N. gonorrhoeae [3]; [14],0.125 µg/mL
same,MIC,N. gonorrhoeae [3]; [15],0.125 µg/mL
same,MIC,N. gonorrhoeae [3]; [16],0.06 µg/mL
same,MIC,N. gonorrhoeae [3]; [17],0.25 µg/mL
same,MIC,N. gonorrhoeae [3]; [18],0.25 µg/mL
same,MIC,N. gonorrhoeae [3]; [19],0.125 µg/mL
same,MIC,N. gonorrhoeae [3]; [20],0.125 µg/mL
same,MIC,N. gonorrhoeae [3]; [21],0.125 µg/mL
same,MIC,N. gonorrhoeae [3]; [22],0.5 µg/mL
same,MIC,N. gonorrhoeae [3]; [23],0.125 µg/mL
same,MIC,N. gonorrhoeae [3]; [24],0.125 µg/mL
same,MIC,N. gonorrhoeae [3]; [25],0.125 µg/mL
same,NgMIC50,N. gonorrhoeae [3],0.125 µg/mL
same,IC50,[4],2.4 nM
Cc1c(CN(C)C(=O)/C=C/c2cnc3c(c2)N[C@@H](C)CC(=O)N3)oc2ccccc12 [Compound 6],Minimum inhibitory concentration,N. gonorrhoeae [3]; [12],1 µg/mL
same,Minimum inhibitory concentration,N. gonorrhoeae [3]; [13],0.5 µg/mL
same,Minimum inhibitory concentration,N. gonorrhoeae [3]; [14],0.5 µg/mL
same,Minimum inhibitory concentration,N. gonorrhoeae [3]; [15],0.5 µg/mL
same,Minimum inhibitory concentration,N. gonorrhoeae [3]; [16],0.5 µg/mL
same,Minimum inhibitory concentration,N. gonorrhoeae [3]; [17],1 µg/mL
same,Minimum inhibitory concentration,N. gonorrhoeae [3]; [18],1 µg/mL
same,Minimum inhibitory concentration,N. gonorrhoeae [3]; [19],1 µg/mL
same,Minimum inhibitory concentration,N. gonorrhoeae [3]; [20],0.5 µg/mL
same,Minimum inhibitory concentration,N. gonorrhoeae [3]; [21],1 µg/mL
same,Minimum inhibitory concentration,N. gonorrhoeae [3]; [22],2 µg/mL
same,Minimum inhibitory concentration,N. gonorrhoeae [3]; [23],0.5 µg/mL
same,Minimum inhibitory concentration,N. gonorrhoeae [3]; [24],0.5 µg/mL
same,Minimum inhibitory concentration,N. gonorrhoeae [3]; [25],0.5 µg/mL
same,IC50,[4],14 nM
same,fold less potent than its enantiomer compound 2 (NgFabI IC50),[4],5 fold
O=P1(N(CCCl)CCCl)NCCCO1 (stereo not drawn) [Cyclophosphamide],Incidence of micronucleated cells,"human lymphocytes; +S9, treatment 3 h, harvest 32 h, positive control 15 µg/mL (Debio 1453P study)",3.00%
same,Incidence of micronucleated cells,"human lymphocytes; +S9, treatment 3 h, harvest 32.5 h, positive control 20 µg/mL (Debio 1453 study)",7.15%
same,Micronucleated cell percentage,human lymphocytes; [26],3.00%
same,Micronucleated cells,human lymphocytes; [26],21 and 39
same,Micronucleated cell percentage,human lymphocytes; [27],7.15%
same,Micronucleated cells,human lymphocytes; [27],78 and 65
"CC(=O)NC[C@H]1CN(c2ccc(N3CCOCC3)c(F)c2)C(=O)O1 [Linezolid, reference compound]",CFU per thigh,S. aureus ATCC 29213,930 CFU per thigh and 510 CFU per thigh and 570 CFU per thigh and 750 CFU per thigh and 720 CFU per thigh
same,Log10(CFU/Thigh),S. aureus ATCC 29213,2.968 Log10(CFU/Thigh) and 2.708 Log10(CFU/Thigh) and 2.756 Log10(CFU/Thigh) and 2.875 Log10(CFU/Thigh) and 2.857 Log10(CFU/Thigh)
CN(C)CCCN1c2ccccc2Sc2ccc(Cl)cc21 [chlorpromazine],"viability at 24 h, 5 µM",[5]; 5 µM,101%
same,"viability at 24 h, 50 µM",[5]; 50 µM,1%
same,"viability at 24 h, 250 µM",[5]; 250 µM,0%
same,"Cytotoxicity, Mean (n=3)",HepG2 cells; 5 µM,5%
same,"Cytotoxicity, Mean (n=3)",HepG2 cells; 50 µM,33%
same,"Cytotoxicity, Mean (n=3)",HepG2 cells; 250 µM,29%
